Measurements as given in ChEMBL document CHEMBL5291721, “A preclinical secondary pharmacology resource illuminates target-adverse drug reaction associations of marketed drugs” (Nat Commun, 2023).

How the values were obtained:
[1] = target: Beta-1 adrenergic receptor (Homo sapiens, UniProt P08588); type: functional
Adenosine receptor A2a = Adenosine receptor A2a (Homo sapiens, UniProt P29274)
[2] = target: T1, Equilibrative nucleoside transporter 1 (Homo sapiens, UniProt Q99808)
T1 sequence (Q99808 whole entry): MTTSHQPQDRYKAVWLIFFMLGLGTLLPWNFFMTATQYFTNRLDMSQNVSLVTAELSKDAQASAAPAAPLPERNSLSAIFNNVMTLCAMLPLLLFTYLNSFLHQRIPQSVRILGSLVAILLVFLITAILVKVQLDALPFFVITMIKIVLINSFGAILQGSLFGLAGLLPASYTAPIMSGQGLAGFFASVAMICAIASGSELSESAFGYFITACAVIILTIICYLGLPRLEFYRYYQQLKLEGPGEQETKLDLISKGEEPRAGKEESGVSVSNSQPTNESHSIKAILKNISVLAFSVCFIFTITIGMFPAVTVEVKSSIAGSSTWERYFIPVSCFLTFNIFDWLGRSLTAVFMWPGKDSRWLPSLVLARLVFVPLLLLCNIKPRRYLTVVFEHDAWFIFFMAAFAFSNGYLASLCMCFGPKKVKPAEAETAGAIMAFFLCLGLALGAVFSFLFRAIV

Motilin receptor = Motilin receptor (Homo sapiens, UniProt O43193)
Motilin receptor, sequence (O43193 whole entry): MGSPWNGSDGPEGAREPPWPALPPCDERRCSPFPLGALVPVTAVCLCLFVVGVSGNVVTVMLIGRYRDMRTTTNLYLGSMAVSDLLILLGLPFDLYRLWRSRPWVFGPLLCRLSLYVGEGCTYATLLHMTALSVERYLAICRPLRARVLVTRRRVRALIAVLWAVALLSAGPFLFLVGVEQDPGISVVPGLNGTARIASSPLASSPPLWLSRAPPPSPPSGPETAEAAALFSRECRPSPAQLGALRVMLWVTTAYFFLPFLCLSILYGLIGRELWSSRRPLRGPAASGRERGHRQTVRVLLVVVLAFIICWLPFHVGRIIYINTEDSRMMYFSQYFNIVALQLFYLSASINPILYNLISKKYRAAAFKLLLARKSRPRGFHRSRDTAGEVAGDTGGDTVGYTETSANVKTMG

[3] = target: T2, 5-hydroxytryptamine receptor 3A (Homo sapiens, UniProt P46098); type: functional
T2 sequence (P46098 whole entry): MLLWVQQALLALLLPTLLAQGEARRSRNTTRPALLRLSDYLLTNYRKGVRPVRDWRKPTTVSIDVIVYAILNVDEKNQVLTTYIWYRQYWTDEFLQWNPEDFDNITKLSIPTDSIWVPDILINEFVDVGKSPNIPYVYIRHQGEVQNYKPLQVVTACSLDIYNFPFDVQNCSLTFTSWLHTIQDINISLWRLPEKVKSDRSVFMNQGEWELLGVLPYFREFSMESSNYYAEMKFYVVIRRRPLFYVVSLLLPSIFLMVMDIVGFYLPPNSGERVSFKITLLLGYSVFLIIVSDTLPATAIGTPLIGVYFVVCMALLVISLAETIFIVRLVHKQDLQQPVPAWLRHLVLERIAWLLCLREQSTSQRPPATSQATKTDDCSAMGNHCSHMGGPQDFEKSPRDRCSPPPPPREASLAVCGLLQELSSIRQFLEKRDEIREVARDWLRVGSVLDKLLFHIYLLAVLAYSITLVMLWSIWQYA

[4] = target: T3, Type-1 angiotensin II receptor (Homo sapiens, UniProt P30556)
T3 sequence (P30556 whole entry): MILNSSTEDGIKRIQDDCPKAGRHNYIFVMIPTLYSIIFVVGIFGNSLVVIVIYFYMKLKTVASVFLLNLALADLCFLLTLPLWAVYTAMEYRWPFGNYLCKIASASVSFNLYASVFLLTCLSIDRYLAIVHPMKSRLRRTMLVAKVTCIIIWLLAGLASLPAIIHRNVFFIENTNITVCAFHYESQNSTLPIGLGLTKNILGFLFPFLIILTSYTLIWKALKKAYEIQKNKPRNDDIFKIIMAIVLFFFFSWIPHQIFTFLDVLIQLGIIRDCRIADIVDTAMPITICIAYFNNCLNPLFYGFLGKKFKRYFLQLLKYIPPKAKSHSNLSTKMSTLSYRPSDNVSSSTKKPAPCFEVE

[5] = target: 3',5'-cyclic-AMP phosphodiesterase 4D (Homo sapiens, UniProt Q08499); type: functional
3',5'-cyclic-AMP phosphodiesterase 4D, sequence (Q08499 whole entry): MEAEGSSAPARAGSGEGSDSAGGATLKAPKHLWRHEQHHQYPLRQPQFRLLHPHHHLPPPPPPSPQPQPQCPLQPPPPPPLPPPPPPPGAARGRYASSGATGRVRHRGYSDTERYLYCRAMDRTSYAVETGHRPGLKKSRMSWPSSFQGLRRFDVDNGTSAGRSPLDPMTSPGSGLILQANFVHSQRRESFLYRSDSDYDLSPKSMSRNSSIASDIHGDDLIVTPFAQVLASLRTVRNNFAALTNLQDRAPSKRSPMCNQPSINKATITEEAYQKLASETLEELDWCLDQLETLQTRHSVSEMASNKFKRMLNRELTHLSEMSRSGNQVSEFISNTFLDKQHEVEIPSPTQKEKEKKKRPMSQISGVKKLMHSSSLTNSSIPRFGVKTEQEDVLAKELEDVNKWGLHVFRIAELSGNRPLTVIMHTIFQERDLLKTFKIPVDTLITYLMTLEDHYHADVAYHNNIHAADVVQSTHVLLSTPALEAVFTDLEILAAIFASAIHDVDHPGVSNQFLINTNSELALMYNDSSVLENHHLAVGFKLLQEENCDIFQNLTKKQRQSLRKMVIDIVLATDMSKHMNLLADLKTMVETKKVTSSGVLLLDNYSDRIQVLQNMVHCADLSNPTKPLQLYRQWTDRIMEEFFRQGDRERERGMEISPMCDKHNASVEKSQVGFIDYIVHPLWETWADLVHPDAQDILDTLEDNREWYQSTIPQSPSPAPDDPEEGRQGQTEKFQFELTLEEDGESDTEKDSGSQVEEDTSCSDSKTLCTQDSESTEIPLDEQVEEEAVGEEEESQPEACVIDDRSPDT

[6] = target: T4, Amine oxidase [flavin-containing] A (Homo sapiens, UniProt P21397); type: functional
T4 sequence (P21397 whole entry): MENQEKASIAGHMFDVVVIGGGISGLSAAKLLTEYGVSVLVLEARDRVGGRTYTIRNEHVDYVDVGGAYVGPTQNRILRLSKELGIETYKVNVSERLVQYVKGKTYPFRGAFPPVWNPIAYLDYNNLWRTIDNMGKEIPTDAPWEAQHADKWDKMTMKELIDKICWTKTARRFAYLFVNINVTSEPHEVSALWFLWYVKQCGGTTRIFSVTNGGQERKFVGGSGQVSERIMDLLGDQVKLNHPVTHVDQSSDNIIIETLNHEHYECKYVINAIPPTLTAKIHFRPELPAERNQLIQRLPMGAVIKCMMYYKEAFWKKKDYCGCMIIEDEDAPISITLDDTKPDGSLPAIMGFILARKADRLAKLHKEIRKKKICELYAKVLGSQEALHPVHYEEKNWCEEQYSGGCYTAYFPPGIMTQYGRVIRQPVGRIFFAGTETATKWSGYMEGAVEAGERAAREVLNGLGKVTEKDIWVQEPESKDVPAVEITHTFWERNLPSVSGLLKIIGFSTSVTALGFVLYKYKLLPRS

[7] = target: cGMP-inhibited 3',5'-cyclic phosphodiesterase 3A (Homo sapiens, UniProt Q14432); type: functional
cGMP-inhibited 3',5'-cyclic phosphodiesterase 3A, sequence (Q14432 whole entry): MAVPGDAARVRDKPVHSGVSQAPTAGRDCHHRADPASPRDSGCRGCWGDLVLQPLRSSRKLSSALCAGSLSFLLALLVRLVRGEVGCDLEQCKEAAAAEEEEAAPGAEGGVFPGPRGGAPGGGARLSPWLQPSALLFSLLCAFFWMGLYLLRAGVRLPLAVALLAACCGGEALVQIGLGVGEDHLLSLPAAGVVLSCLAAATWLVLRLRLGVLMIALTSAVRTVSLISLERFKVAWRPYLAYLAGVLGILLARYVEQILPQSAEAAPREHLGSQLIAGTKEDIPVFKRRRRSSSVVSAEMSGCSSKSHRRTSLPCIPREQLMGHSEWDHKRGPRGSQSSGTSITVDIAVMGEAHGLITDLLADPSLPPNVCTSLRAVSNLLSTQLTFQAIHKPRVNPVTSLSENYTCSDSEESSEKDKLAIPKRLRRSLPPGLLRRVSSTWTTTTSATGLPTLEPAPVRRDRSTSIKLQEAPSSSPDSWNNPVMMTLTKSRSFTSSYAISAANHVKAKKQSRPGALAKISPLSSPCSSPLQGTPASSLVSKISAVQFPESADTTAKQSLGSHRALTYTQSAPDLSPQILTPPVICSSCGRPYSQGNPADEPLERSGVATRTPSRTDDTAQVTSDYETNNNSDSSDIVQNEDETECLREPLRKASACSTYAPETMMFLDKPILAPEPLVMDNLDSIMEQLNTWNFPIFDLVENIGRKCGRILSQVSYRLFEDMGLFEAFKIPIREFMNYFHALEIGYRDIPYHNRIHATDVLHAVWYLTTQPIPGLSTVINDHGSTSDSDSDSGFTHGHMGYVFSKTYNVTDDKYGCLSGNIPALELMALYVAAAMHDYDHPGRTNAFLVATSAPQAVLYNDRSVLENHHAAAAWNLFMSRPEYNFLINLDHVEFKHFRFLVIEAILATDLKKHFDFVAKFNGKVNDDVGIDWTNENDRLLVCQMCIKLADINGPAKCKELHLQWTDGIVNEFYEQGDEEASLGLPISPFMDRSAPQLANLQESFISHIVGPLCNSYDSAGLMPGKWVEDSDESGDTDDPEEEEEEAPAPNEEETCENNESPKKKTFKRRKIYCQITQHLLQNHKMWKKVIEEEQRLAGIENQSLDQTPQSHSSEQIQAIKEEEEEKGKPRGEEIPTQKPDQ

[8] = target: T5, Muscarinic acetylcholine receptor M2 (Homo sapiens, UniProt P08172); type: functional, cell-based
T5 sequence (P08172 whole entry): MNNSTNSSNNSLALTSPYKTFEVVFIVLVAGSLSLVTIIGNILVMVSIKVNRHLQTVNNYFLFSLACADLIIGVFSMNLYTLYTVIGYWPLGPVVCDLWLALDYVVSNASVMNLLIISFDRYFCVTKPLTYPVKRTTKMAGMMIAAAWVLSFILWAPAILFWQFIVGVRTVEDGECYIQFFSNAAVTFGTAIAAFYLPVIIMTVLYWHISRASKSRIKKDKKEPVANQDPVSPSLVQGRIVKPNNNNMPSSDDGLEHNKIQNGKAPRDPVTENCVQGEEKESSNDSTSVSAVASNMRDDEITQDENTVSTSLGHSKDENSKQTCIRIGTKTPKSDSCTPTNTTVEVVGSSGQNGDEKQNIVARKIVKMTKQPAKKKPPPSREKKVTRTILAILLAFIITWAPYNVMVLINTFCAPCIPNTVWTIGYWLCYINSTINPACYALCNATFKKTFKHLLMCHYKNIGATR

[9] = target: Growth hormone secretagogue receptor type 1 (Homo sapiens, UniProt Q92847)
Growth hormone secretagogue receptor type 1, sequence (Q92847 whole entry): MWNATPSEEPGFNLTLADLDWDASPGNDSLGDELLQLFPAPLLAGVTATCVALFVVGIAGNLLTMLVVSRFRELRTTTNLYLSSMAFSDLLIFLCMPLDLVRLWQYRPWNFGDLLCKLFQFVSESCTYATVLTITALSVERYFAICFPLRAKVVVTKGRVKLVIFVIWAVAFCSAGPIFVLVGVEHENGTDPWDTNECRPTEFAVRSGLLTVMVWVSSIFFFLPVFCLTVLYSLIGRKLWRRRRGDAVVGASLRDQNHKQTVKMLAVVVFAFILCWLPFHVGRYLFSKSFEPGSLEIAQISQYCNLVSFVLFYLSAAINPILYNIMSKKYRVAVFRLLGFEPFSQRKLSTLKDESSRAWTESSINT
Also: assay procedure not described here.

Beta-1 adrenergic receptor, sequence (P08588 whole entry): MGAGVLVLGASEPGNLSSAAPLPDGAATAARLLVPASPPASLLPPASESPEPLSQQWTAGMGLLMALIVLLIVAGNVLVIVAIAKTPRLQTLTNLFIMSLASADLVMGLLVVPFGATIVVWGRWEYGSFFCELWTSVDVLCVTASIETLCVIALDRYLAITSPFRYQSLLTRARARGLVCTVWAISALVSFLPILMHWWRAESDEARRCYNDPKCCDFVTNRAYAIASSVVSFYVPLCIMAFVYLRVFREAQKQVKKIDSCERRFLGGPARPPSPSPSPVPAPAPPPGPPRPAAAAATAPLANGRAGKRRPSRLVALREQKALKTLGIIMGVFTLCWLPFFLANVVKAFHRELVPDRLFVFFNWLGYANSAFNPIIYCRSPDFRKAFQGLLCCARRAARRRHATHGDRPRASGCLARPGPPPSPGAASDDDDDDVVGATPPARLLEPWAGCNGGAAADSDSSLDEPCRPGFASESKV
Adenosine receptor A2a, sequence (P29274 whole entry): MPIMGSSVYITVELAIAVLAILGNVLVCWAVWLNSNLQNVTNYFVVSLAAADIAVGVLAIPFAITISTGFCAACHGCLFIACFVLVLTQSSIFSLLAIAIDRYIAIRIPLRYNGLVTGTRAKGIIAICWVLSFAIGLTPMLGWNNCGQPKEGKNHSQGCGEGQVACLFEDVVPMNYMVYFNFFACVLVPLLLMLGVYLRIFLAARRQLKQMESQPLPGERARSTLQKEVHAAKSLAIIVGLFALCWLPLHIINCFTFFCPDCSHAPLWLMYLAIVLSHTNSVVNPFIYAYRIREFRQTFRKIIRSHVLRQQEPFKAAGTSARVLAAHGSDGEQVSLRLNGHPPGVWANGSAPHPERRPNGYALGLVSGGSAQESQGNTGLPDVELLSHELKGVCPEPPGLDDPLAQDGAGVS

SMILES	AC50 [1]	AC50 (Adenosine receptor A2a)	AC50 [2]	AC50 (Motilin receptor)	AC50 [3]	AC50 [4]	AC50 [5]	AC50 [6]	AC50 [7]	AC50 [8]	AC50 [9]
Cc1c(C(=O)NN2CCCCC2)nn(-c2ccc(Cl)cc2Cl)c1-c1ccc(Cl)cc1 [RIMONABANT]	> 30 µM	> 30 µM	20.1 µM	21 µM	> 30 µM	16.9 µM	> 30 µM	> 30 µM	8.4 µM	–	25 µM
C[N+]1(C)CCC(OC(=O)C(O)(c2ccccc2)C2CCCC2)C1 (stereo not given) [GLYCOPYRRONIUM BROMIDE]	–	–	> 30 µM	> 10 µM	–	> 30 µM	> 30 µM	–	> 30 µM	–	> 30 µM
c1cnc(N2CCN(Cc3ccc4c(c3)OCO4)CC2)nc1 [PIRIBEDIL]	–	> 30 µM	> 30 µM	> 30 µM	> 30 µM	> 30 µM	> 30 µM	> 30 µM	> 30 µM	> 30 µM	30 µM
C=CCc1ccccc1OCC(O)CNC(C)C (stereo not given) [ALPRENOLOL]	–	> 30 µM	> 30 µM	> 30 µM	> 30 µM	> 30 µM	> 30 µM	> 30 µM	> 30 µM	> 30 µM	> 30 µM
O=C(Cc1ccc(-c2ccccc2)cc1)Nc1ccccn1 [DIFENPIRAMIDE]	–	–	–	–	> 30 µM	–	> 30 µM	> 30 µM	> 30 µM	> 30 µM	–
COc1cc(NC(C)CCCN)c2ncccc2c1 (stereo not given) [PRIMAQUINE]	–	> 30 µM	–	> 30 µM	–	> 30 µM	12 µM	–	2.9 µM	–	> 30 µM
CC(=O)NCCCS(=O)(=O)O [ACAMPROSATE]	> 30 µM	> 30 µM	–	> 30 µM	> 30 µM	> 30 µM	> 30 µM	> 30 µM	> 30 µM	> 30 µM	> 30 µM

Continued, values first:

AC50 [1]	AC50 (Adenosine receptor A2a)	AC50 [2]	AC50 (Motilin receptor)	AC50 [3]	AC50 [4]	AC50 [5]	AC50 [6]	AC50 [7]	AC50 [8]	AC50 [9]	SMILES
7.8 µM	> 30 µM	> 30 µM	> 30 µM	> 30 µM	> 30 µM	> 30 µM	> 30 µM	> 30 µM	> 30 µM	> 30 µM	COc1ccccc1OCC(O)CN1CCN(CC(=O)Nc2c(C)cccc2C)CC1 (stereo not given) [RANOLAZINE]
> 30 µM	> 30 µM	> 30 µM	> 30 µM	> 30 µM	> 30 µM	10 µM	> 30 µM	> 30 µM	> 30 µM	> 30 µM	Nc1nc(NC2CC2)c2ncn([C@H]3C=C[C@@H](CO)C3)c2n1 [ABACAVIR]
19 µM	> 30 µM	> 30 µM	> 30 µM	> 30 µM	13 µM	15 µM	> 30 µM	24 µM	> 10 µM	> 30 µM	O=C1Nc2ccc(Cl)cc2[C@@](C#CC2CC2)(C(F)(F)F)O1 [EFAVIRENZ]
> 10 µM	> 30 µM	> 30 µM	> 10 µM	> 30 µM	> 30 µM	> 30 µM	> 10 µM	> 30 µM	–	> 30 µM	CC1=C(C(=O)O)N2C(=O)[C@@H](NC(=O)[C@H](N)c3ccccc3)[C@H]2SC1 [CEPHALEXIN ANHYDROUS]
> 30 µM	> 30 µM	–	> 30 µM	> 30 µM	> 30 µM	> 30 µM	> 30 µM	> 30 µM	> 30 µM	> 30 µM	Cc1nc([N+](=O)[O-])cn1-c1ccc([N+](=O)[O-])cc1 [NITREFAZOLE]
> 30 µM	> 30 µM	> 30 µM	29 µM	> 30 µM	> 30 µM	> 30 µM	> 30 µM	> 30 µM	–	6.2 µM	C1CCC(C(CC2CCCCN2)C2CCCCC2)CC1 (stereo not given) [PERHEXILINE]
